According to ChEMBL document CHEMBL2396621, “Design, synthesis and biological evaluation of 2-mercapto-3-phenethylquinazoline bearing anilide fragments as potential antitumor agents: molecular docking study” (2013):

Experiments:
Type in all cases: functional
LOX IMVI = test: Cytotoxicity against human LOXIMVI cells assessed as growth inhibition at 10 uM after 48 hrs by coulter counter analysis; settings: read-out: GI
MDA-MB-435 = test: Cytotoxicity against human MDA-MB-435 cells assessed as growth inhibition at 10 uM after 48 hrs by coulter counter analysis; settings: MDA-MB-435, 48 h, read-out: GI
HT-29 = test: Cytotoxicity against human HT-29 cells assessed as growth inhibition at 10 uM after 48 hrs by coulter counter analysis; settings: HT-29, 48 h, read-out: GI
HOP-62 = test: Cytotoxicity against human HOP62 cells assessed as growth inhibition at 10 uM after 48 hrs by coulter counter analysis; settings: HOP-62, 48 h, read-out: GI
NCI-H460 = test: Cytotoxicity against human NCI-H460 cells assessed as growth inhibition at 10 uM after 48 hrs by coulter counter analysis; settings: NCI-H460, 48 h, read-out: GI
NCI-H322M = test: Cytotoxicity against human NCI-H322M cells assessed as growth inhibition at 10 uM after 48 hrs by coulter counter analysis; settings: read-out: GI
A549 = test: Cytotoxicity against human A549 cells assessed as growth inhibition at 10 uM after 48 hrs by coulter counter analysis; settings: A549, 48 h, read-out: GI
SNB-19 = test: Cytotoxicity against human SNB19 cells assessed as growth inhibition at 10 uM after 48 hrs by coulter counter analysis; settings: SNB-19, 48 h, read-out: GI
SF-295 = test: Cytotoxicity against human SF295 cells assessed as growth inhibition at 10 uM after 48 hrs by coulter counter analysis; settings: SF-295, 48 h, read-out: GI
SN12C = test: Cytotoxicity against human SN12C cells assessed as growth inhibition at 10 uM after 48 hrs by coulter counter analysis; settings: read-out: GI
IGROV-1 = test: Cytotoxicity against human IGROV1 cells assessed as growth inhibition at 10 uM after 48 hrs by coulter counter analysis; settings: IGROV-1, 48 h, read-out: GI
HCC 2998 = test: Cytotoxicity against human HCC2998 cells assessed as growth inhibition at 10 uM after 48 hrs by coulter counter analysis; settings: HCC 2998, 48 h, read-out: GI
BT-549 = test: Cytotoxicity against human BT549 cells assessed as growth inhibition at 10 uM after 48 hrs by coulter counter analysis; settings: BT-549, 48 h, read-out: GI
UO-31 = test: Cytotoxicity against human UO31 cells assessed as growth inhibition at 10 uM after 48 hrs by coulter counter analysis; settings: UO-31, 48 h, read-out: GI
TK-10 = test: Cytotoxicity against human TK10 cells assessed as growth inhibition at 10 uM after 48 hrs by coulter counter analysis; settings: TK-10, 48 h, read-out: GI
NCI-H226 = test: Cytotoxicity against human NCI-H226 cells assessed as growth inhibition at 10 uM after 48 hrs by coulter counter analysis; settings: NCI-H226, 48 h, read-out: GI
A498 = test: Cytotoxicity against human A498 cells assessed as growth inhibition at 10 uM after 48 hrs by coulter counter analysis; settings: A498, 48 h, read-out: GI
HCT-15 = test: Cytotoxicity against human HCT15 cells assessed as growth inhibition at 10 uM after 48 hrs by coulter counter analysis; settings: HCT-15, 48 h, read-out: GI
[1] = Cytotoxicity against human NCI-ADR-RES cells assessed as growth inhibition at 10 uM after 48 hrs by coulter counter analysis; settings: read-out: GI
SK-OV-3 = test: Cytotoxicity against human SKOV3 cells assessed as growth inhibition at 10 uM after 48 hrs by coulter counter analysis; settings: SK-OV-3, 48 h, read-out: GI
KM12 = test: Cytotoxicity against human KM12 cells assessed as growth inhibition at 10 uM after 48 hrs by coulter counter analysis; settings: KM12, 48 h, read-out: GI
SK-MEL-5 = test: Cytotoxicity against human SK-MEL-5 cells assessed as growth inhibition at 10 uM after 48 hrs by coulter counter analysis; settings: SK-MEL-5, 48 h, read-out: GI
NCI-H23 = test: Cytotoxicity against human NCI-H23 cells assessed as growth inhibition at 10 uM after 48 hrs by coulter counter analysis; settings: NCI-H23, 48 h, read-out: GI
COLO 205 = test: Cytotoxicity against human COLO205 cells assessed as growth inhibition at 10 uM after 48 hrs by coulter counter analysis; settings: COLO 205, 48 h, read-out: GI
SF-539 = test: Cytotoxicity against human SF539 cells assessed as growth inhibition at 10 uM after 48 hrs by coulter counter analysis; settings: SF-539, 48 h, read-out: GI
SF-268 = test: Cytotoxicity against human SF268 cells assessed as growth inhibition at 10 uM after 48 hrs by coulter counter analysis; settings: SF-268, 48 h, read-out: GI
OVCAR-3 = test: Cytotoxicity against human OVCAR3 cells assessed as growth inhibition at 10 uM after 48 hrs by coulter counter analysis; settings: OVCAR-3, 48 h, read-out: GI
ACHN = test: Cytotoxicity against human ACHN cells assessed as growth inhibition at 10 uM after 48 hrs by coulter counter analysis; settings: read-out: GI
OVCAR-4 = test: Cytotoxicity against human OVCAR4 cells assessed as growth inhibition at 10 uM after 48 hrs by coulter counter analysis; settings: OVCAR-4, 48 h, read-out: GI
SW-620 = test: Cytotoxicity against human SW620 cells assessed as growth inhibition at 10 uM after 48 hrs by coulter counter analysis; settings: SW-620, 48 h, read-out: GI
NCI-H522 = test: Cytotoxicity against human NCI-H522 cells assessed as growth inhibition at 10 uM after 48 hrs by coulter counter analysis; settings: NCI-H522, 48 h, read-out: GI
T47D = test: Cytotoxicity against human T47D cells assessed as growth inhibition at 10 uM after 48 hrs by coulter counter analysis; settings: read-out: GI
PC-3 = test: Cytotoxicity against human PC3 cells assessed as growth inhibition at 10 uM after 48 hrs by coulter counter analysis; settings: PC-3, 48 h, read-out: GI
DU-145 = test: Cytotoxicity against human DU145 cells assessed as growth inhibition at 10 uM after 48 hrs by coulter counter analysis; settings: DU-145, 48 h, read-out: GI
MDA-MB-468 = test: Cytotoxicity against human MDA-MB-468 cells assessed as growth inhibition at 10 uM after 48 hrs by coulter counter analysis; settings: MDA-MB-468, 48 h, read-out: GI
UACC-257 = test: Cytotoxicity against human UACC257 cells assessed as growth inhibition at 10 uM after 48 hrs by coulter counter analysis; settings: UACC-257, 48 h, read-out: GI
SNB-75 = test: Cytotoxicity against human SNB75 cells assessed as growth inhibition at 10 uM after 48 hrs by coulter counter analysis; settings: SNB-75, 48 h, read-out: GI

SMILES: CCOc1ccc(NC(=O)CSc2nc3ccccc3c(=O)n2CCc2ccccc2)cc1
- inhibition of growth at 10 µM (LOX IMVI): 11%
- inhibition of growth at 10 µM (MDA-MB-435): 14%
- inhibition of growth at 10 µM (HT-29): 10%
- inhibition of growth at 10 µM (HOP-62): 36%
- inhibition of growth at 10 µM (NCI-H460): 11%
- inhibition of growth at 10 µM (NCI-H322M): 23%
- inhibition of growth at 10 µM (A549): 13%
- inhibition of growth at 10 µM (SNB-19): < 10%
- inhibition of growth at 10 µM (SF-295): < 10%
- inhibition of growth at 10 µM (SN12C): < 10%
- inhibition of growth at 10 µM (IGROV-1): 21%
- inhibition of growth at 10 µM (HCC 2998): < 10%
- inhibition of growth at 10 µM (BT-549): < 10%
- inhibition of growth at 10 µM (UO-31): 26%
- inhibition of growth at 10 µM (TK-10): < 10%
- inhibition of growth at 10 µM (NCI-H226): 31%
- inhibition of growth at 10 µM (A498): < 10%
- inhibition of growth at 10 µM (HCT-15): < 10%
- inhibition of growth at 10 µM [1]: < 10%
- inhibition of growth at 10 µM (SK-OV-3): < 10%
- inhibition of growth at 10 µM (KM12): < 10%
- inhibition of growth at 10 µM (SK-MEL-5): < 10%
- inhibition of growth at 10 µM (NCI-H23): < 10%
- inhibition of growth at 10 µM (COLO 205): < 10%
- inhibition of growth at 10 µM (SF-539): < 10%
- inhibition of growth at 10 µM (SF-268): 25%
- inhibition of growth at 10 µM (OVCAR-3): < 10%
- inhibition of growth at 10 µM (ACHN): 12%
- inhibition of growth at 10 µM (OVCAR-4): < 10%
- inhibition of growth at 10 µM (SW-620): < 10%
- inhibition of growth at 10 µM (NCI-H522): 11%
- inhibition of growth at 10 µM (T47D): 15%
- inhibition of growth at 10 µM (PC-3): < 10%
- inhibition of growth at 10 µM (DU-145): < 10%
- inhibition of growth at 10 µM (MDA-MB-468): 10%
- inhibition of growth at 10 µM (UACC-257): < 10%
- inhibition of growth at 10 µM (SNB-75): 21%

SMILES: CCOC(=O)c1ccc(NC(=O)CSc2nc3ccccc3c(=O)n2CCc2ccccc2)cc1
- inhibition of growth at 10 µM (LOX IMVI): 22%
- inhibition of growth at 10 µM (MDA-MB-435): 16%
- inhibition of growth at 10 µM (HT-29): 12%
- inhibition of growth at 10 µM (HOP-62): 45%
- inhibition of growth at 10 µM (NCI-H460): 23%
- inhibition of growth at 10 µM (NCI-H322M): 23%
- inhibition of growth at 10 µM (A549): 27%
- inhibition of growth at 10 µM (SNB-19): 36%
- inhibition of growth at 10 µM (SF-295): 25%
- inhibition of growth at 10 µM (SN12C): < 10%
- inhibition of growth at 10 µM (IGROV-1): 31%
- inhibition of growth at 10 µM (HCC 2998): < 10%
- inhibition of growth at 10 µM (BT-549): 12%
- inhibition of growth at 10 µM (UO-31): 10%
- inhibition of growth at 10 µM (TK-10): < 10%
- inhibition of growth at 10 µM (NCI-H226): 25%
- inhibition of growth at 10 µM (A498): < 10%
- inhibition of growth at 10 µM (HCT-15): < 10%
- inhibition of growth at 10 µM [1]: 19%
- inhibition of growth at 10 µM (SK-OV-3): 19%
- inhibition of growth at 10 µM (KM12): 11%
- inhibition of growth at 10 µM (SK-MEL-5): 21%
- inhibition of growth at 10 µM (NCI-H23): 13%
- inhibition of growth at 10 µM (COLO 205): 22%
- inhibition of growth at 10 µM (SF-539): < 10%
- inhibition of growth at 10 µM (SF-268): 33%
- inhibition of growth at 10 µM (OVCAR-3): 13%
- inhibition of growth at 10 µM (ACHN): 21%
- inhibition of growth at 10 µM (OVCAR-4): 10%
- inhibition of growth at 10 µM (SW-620): 11%
- inhibition of growth at 10 µM (NCI-H522): 26%
- inhibition of growth at 10 µM (T47D): 17%
- inhibition of growth at 10 µM (PC-3): 10%
- inhibition of growth at 10 µM (DU-145): 10%
- inhibition of growth at 10 µM (MDA-MB-468): 18%
- inhibition of growth at 10 µM (UACC-257): 29%
- inhibition of growth at 10 µM (SNB-75): 39%

SMILES: O=C(CSc1nc2ccccc2c(=O)n1CCc1ccccc1)Nc1ccccc1C(=O)O
- inhibition of growth at 10 µM (LOX IMVI): 38%
- inhibition of growth at 10 µM (MDA-MB-435): 35%
- inhibition of growth at 10 µM (HT-29): 11%
- inhibition of growth at 10 µM (HOP-62): 49%
- inhibition of growth at 10 µM (NCI-H460): 41%
- inhibition of growth at 10 µM (NCI-H322M): 19%
- inhibition of growth at 10 µM (A549): 46%
- inhibition of growth at 10 µM (SNB-19): 40%
- inhibition of growth at 10 µM (SF-295): 18%
- inhibition of growth at 10 µM (SN12C): < 10%
- inhibition of growth at 10 µM (IGROV-1): 42%
- inhibition of growth at 10 µM (HCC 2998): < 10%
- inhibition of growth at 10 µM (BT-549): 10%
- inhibition of growth at 10 µM (UO-31): < 10%
- inhibition of growth at 10 µM (TK-10): 19%
- inhibition of growth at 10 µM (NCI-H226): 26%
- inhibition of growth at 10 µM (A498): 26%
- inhibition of growth at 10 µM (HCT-15): 12%
- inhibition of growth at 10 µM [1]: 34%
- inhibition of growth at 10 µM (SK-OV-3): 53%
- inhibition of growth at 10 µM (KM12): 10%
- inhibition of growth at 10 µM (SK-MEL-5): 35%
- inhibition of growth at 10 µM (NCI-H23): 26%
- inhibition of growth at 10 µM (COLO 205): 35%
- inhibition of growth at 10 µM (SF-539): 44%
- inhibition of growth at 10 µM (SF-268): 33%
- inhibition of growth at 10 µM (OVCAR-3): 29%
- inhibition of growth at 10 µM (ACHN): 34%
- inhibition of growth at 10 µM (OVCAR-4): 23%
- inhibition of growth at 10 µM (SW-620): 21%
- inhibition of growth at 10 µM (NCI-H522): 85%
- inhibition of growth at 10 µM (T47D): 27%
- inhibition of growth at 10 µM (PC-3): < 10%
- inhibition of growth at 10 µM (DU-145): 30%
- inhibition of growth at 10 µM (MDA-MB-468): 14%
- inhibition of growth at 10 µM (UACC-257): 35%
- inhibition of growth at 10 µM (SNB-75): 74%
